The source of these data is patent publication US20170197979A1, “BENZOTHIADIAZOLAMINES” (BAYER PHARMA AKTIENGESELLSCHAFT, priority 2014, published 2017).

Read-outs that look alike come from different tables or passages of the source.

In this test the target is T1, human full-length MKNK1 (Homo sapiens, UniProt Q9BUB5, T385D).
T1 construct: GST (N); purchased Carna Biosciences 02-145; host or cells: insect cells (baculovirus expression system)
The experiment in a line: MKNK1 kinase high ATP assay (TR-FRET). The format is biochemical. On the procedure:
MKNK1 Kinase High ATP Assay
MKNK1-inhibitory activity at high ATP of compounds of the present invention after their preincubation with MKNK1 was quantified employing the TR-FRET-based MKNK1 high ATP assay as described in the following paragraphs.
A recombinant fusion protein of Glutathione-S-Transferase (GST, N-terminally) and human full-length MKNK1 (amino acids 1-424 and T344D of accession number BAA 19885.1), expressed in insect cells using baculovirus expression system and purified via glutathione sepharose affinity chromatography, was purchased from Carna Biosciences (product no 02-145) and used as enzyme. As substrate for the kinase reaction the biotinylated peptide biotin-Ahx-IKKRKLTRRKSLKG (C-terminus in amide form) was used, which can be purchased e.g. from the company Biosyntan (Berlin-Buch, Germany).
For the assay 50 nL of a 100 fold concentrated solution of the test compound in DMSO was pipetted into a black low volume 384 well microtiter plate (Greiner Bio-One, Frickenhausen, Germany), 2 μL of a solution of MKNK1 in aqueous assay buffer [50 mM HEPES pH 7.5, 5 mM MgCl2, 1.0 mM dithiothreitol, 0.005% (v/v) Nonidet-P40 (Sigma)] was added and the mixture was incubated for 15 min at 22° C. to allow pre-binding of the test compounds to the enzyme before the start of the kinase reaction. Then the kinase reaction was started by the addition of 3 μL of a solution of adenosine-tri-phosphate (ATP, 3.3 mM=>final conc. in the 5 μL assay volume is 2 mM) and substrate (0.1 μM=>final conc. in the 5 μL assay volume is 0.06 μM) in assay buffer and the resulting mixture was incubated for a reaction time of 30 min at 22° C. The concentration of MKNK1 was adjusted depending of the activity of the enzyme lot and was chosen appropriate to have the assay in the linear range, typical concentrations were in the range of 0.003 μg/mL. The reaction was stopped by the addition of 5 μL of a solution of TR-FRET detection reagents (5 nM streptavidine-XL665 [Cisbio Bioassays, Codolet, France] and 1 nM anti-ribosomal protein S6 (pSer236)-antibody from Invitrogen [#44921G] and 1 nM LANCE EU-W1024 labeled ProteinG [Perkin-Elmer, product no. AD0071]) in an aqueous EDTA-solution (100 mM EDTA, 0.1% (w/v) bovine serum albumin in 50 mM HEPES pH 7.5).
The resulting mixture was incubated for 1 h at 22° C. to allow the formation of complex between the phosphorylated biotinylated peptide and the detection reagents. Subsequently the amount of phosphorylated substrate was evaluated by measurement of the resonance energy transfer from the Eu-chelate to the streptavidine-XL. Therefore, the fluorescence emissions at 620 nm and 665 nm after excitation at 350 nm were measured in a TR-FRET reader, e.g. a Rubystar (BMG Labtechnologies, Offenburg, Germany) or a Viewlux (Perkin-Elmer). The ratio of the emissions at 665 nm and at […] was taken as the measure for the amount of phosphorylated substrate. The data were normalised (enzyme reaction without inhibitor=0% inhibition, all other assay components but no enzyme=100% inhibition).

[1] abbreviates: TR-FRET, high ATP (2 mM final), 15 min preincubation with enzyme, GST-MKNK1 (T344D), read-out: MKNK1 IC50.

T1 sequence (Q9BUB5 1-424 isoform Q9BUB5-2 T344D): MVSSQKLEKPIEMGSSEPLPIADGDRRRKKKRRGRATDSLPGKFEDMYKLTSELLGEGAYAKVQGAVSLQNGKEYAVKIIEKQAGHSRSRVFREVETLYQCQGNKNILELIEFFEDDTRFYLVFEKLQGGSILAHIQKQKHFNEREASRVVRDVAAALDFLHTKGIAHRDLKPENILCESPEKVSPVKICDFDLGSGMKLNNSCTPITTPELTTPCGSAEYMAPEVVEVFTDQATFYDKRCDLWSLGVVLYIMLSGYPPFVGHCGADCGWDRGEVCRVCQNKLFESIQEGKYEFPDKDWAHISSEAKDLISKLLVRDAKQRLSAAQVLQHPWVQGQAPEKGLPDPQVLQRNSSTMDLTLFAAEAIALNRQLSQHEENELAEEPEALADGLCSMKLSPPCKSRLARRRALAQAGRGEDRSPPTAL

Turning to `CN(C)C(=O)[C@H]1CCc2c(sc3ncnc(Nc4ccc5nnsc5c4)c23)C1` [Example 1, (7S)-4-(1,2,3-Benzothiadiazol-6-ylamino)-N,N-dimethyl-5,6,7,8-tetrahydro[1]benzothieno[2,3-d]pyrimidine-7-carboxamide], under setting [1], the IC50 was 16 nM.
The same measure, in the same setting: the result for `COCCN(C)C(=O)[C@H]1CCc2c(sc3ncnc(Nc4ccc5nnsc5c4)c23)C1` [Example 2, (7S)-4-(1,2,3-Benzothiadiazol-6-ylamino)-N-(2-methoxyethyl)-N-methyl-5,6,7,8-tetrahydro[1]benzothieno[2,3-d]pyrimidine-7-carboxamide] reads 9.4 nM; that for `C[C@@H]1CN(C(=O)[C@H]2CCc3c(sc4ncnc(Nc5ccc6nnsc6c5)c34)C2)C[C@H](C)O1` [Example 3, [(7S)-4-(1,2,3-Benzothiadiazol-6-ylamino)-5,6,7,8-tetrahydro[1]benzothieno[2,3-d]pyrimidin-7-yl][(2R,6S)-2,6-dimethylmorpholin-4-yl]methanone], 13 nM; that for `C[C@@H]1COCCN1C(=O)[C@H]1CCc2c(sc3ncnc(Nc4ccc5nnsc5c4)c23)C1` [Example 4, [(7S)-4-(1,2,3-Benzothiadiazol-6-ylamino)-5,6,7,8-tetrahydro[1]benzothieno[2,3-d]pyrimidin-7-yl][(3R)-3-methylmorpholin-4-yl]methanone], 11 nM.
The same measure, in the same setting: the result for `C[C@H]1COCCN1C(=O)[C@H]1CCc2c(sc3ncnc(Nc4ccc5nnsc5c4)c23)C1` [Example 5, [(7S)-4-(1,2,3-Benzothiadiazol-6-ylamino)-5,6,7,8-tetrahydro[1]benzothieno[2,3-d]pyrimidin-7-yl][(3S)-3-methylmorpholin-4-yl]methanone] reads 12 nM; that for `O=C([C@H]1CCc2c(sc3ncnc(Nc4ccc5nnsc5c4)c23)C1)N1CCOCC1` [Example 6, [(7S)-4-(1,2,3-Benzothiadiazol-6-ylamino)-5,6,7,8-tetrahydro[1]benzothieno[2,3-d]pyrimidin-7-yl](morpholin-4-yl)methanone], 18 nM; that for `C[C@@H]1COC[C@H](C)N1C(=O)[C@H]1CCc2c(sc3ncnc(Nc4ccc5nnsc5c4)c23)C1` [Example 7, [(7S)-4-(1,2,3-Benzothiadiazol-6-ylamino)-5,6,7,8-tetrahydro[1]benzothieno[2,3-d]pyrimidin-7-yl][(3R,5S)-3,5-dimethylmorpholin-4-yl]methanone], 5.8 nM.
With `C[C@@H]1CN(C(=O)[C@H]2CCc3c(sc4ncnc(Nc5ccc6nnsc6c5)c34)C2)C[C@@H](C)O1` [Example 8, [(7S)-4-(1,2,3-Benzothiadiazol-6-ylamino)-5,6,7,8-tetrahydro[1]benzothieno[2,3-d]pyrimidin-7-yl][(2R,6R)-2,6-dimethylmorpholin-4-yl]methanone], the IC50 under setting [1] stood at 6.4 nM.
As for `C[C@@H]1COC[C@@H](C)N1C(=O)[C@H]1CCc2c(sc3ncnc(Nc4ccc5nnsc5c4)c23)C1` [Example 9, [(7S)-4-(1,2,3-Benzothiadiazol-6-ylamino)-5,6,7,8-tetrahydro[1]benzothieno[2,3-d]pyrimidin-7-yl][(3R,5R)-3,5-dimethylmorpholin-4-yl]methanone], the IC50 under setting [1] turned out to be 5.4 nM.
As for `C[C@H]1CN(C(=O)[C@H]2CCc3c(sc4ncnc(Nc5ccc6nnsc6c5)c34)C2)C[C@H](C)O1` [Example 10, [(7S)-4-(1,2,3-Benzothiadiazol-6-ylamino)-5,6,7,8-tetrahydro[1]benzothieno[2,3-d]pyrimidin-7-yl][(2S,6S)-2,6-dimethylmorpholin-4-yl]methanone], under setting [1], the IC50 came to 5 nM.
Take `CN(C(=O)[C@H]1CCc2c(sc3ncnc(Nc4ccc5nnsc5c4)c23)C1)S(C)(=O)=O` [Example 11, (7S)-4-(1,2,3-Benzothiadiazol-6-ylamino)-N-methyl-N-(methylsulfonyl)-5,6,7,8-tetrahydro[1]benzothieno[2,3-d]pyrimidine-7-carboxamide]: the IC50 under setting [1] was 12 nM.
As for `CN(C)CCN1CCN(C(=O)[C@H]2CCc3c(sc4ncnc(Nc5ccc6nnsc6c5)c34)C2)CC1` [Example 12, [(7S)-4-(1,2,3-Benzothiadiazol-6-ylamino)-5,6,7,8-tetrahydro[1]benzothieno[2,3-d]pyrimidin-7-yl]{4-[2-(dimethylamino)ethyl]piperazin-1-yl}methanone], the IC50 under setting [1] turned out to be 6.4 nM.
As for `CN(C)[C@H]1CCN(C(=O)[C@H]2CCc3c(sc4ncnc(Nc5ccc6nnsc6c5)c34)C2)C1` [Example 13, [(7S)-4-(1,2,3-Benzothiadiazol-6-ylamino)-5,6,7,8-tetrahydro[1]benzothieno[2,3-d]pyrimidin-7-yl][(3S)-3-(dimethylamino)pyrrolidin-1-yl]methanone], the IC50 under setting [1] worked out at 6.1 nM.
Regarding `CN(C)C1CN(C(=O)[C@H]2CCc3c(sc4ncnc(Nc5ccc6nnsc6c5)c34)C2)C1` [Example 14, [(7S)-4-(1,2,3-Benzothiadiazol-6-ylamino)-5,6,7,8-tetrahydro[1]benzothieno[2,3-d]pyrimidin-7-yl][3-(dimethylamino)azetidin-1-yl]methanone], the IC50 under setting [1] was found to be 26 nM.
Consider `CN(C)C1CCN(C(=O)[C@H]2CCc3c(sc4ncnc(Nc5ccc6nnsc6c5)c34)C2)CC1` [Example 15, [(7S)-4-(1,2,3-Benzothiadiazol-6-ylamino)-5,6,7,8-tetrahydro[1]benzothieno[2,3-d]pyrimidin-7-yl][4-(dimethylamino)piperidin-1-yl]methanone], for which the IC50 under setting [1] was 10 nM.
`O=C1CCN(C(=O)[C@H]2CCc3c(sc4ncnc(Nc5ccc6nnsc6c5)c34)C2)CC1` [Example 16, 1-{[(7S)-4-(1,2,3-Benzothiadiazol-6-ylamino)-5,6,7,8-tetrahydro[1]benzothieno[2,3-d]pyrimidin-7-yl]carbonyl}piperidin-4-one] came in with an IC50 of 15 nM.
On to `O=C([C@H]1CCc2c(sc3ncnc(Nc4ccc5nnsc5c4)c23)C1)N1CCC(F)(F)C1` [Example 17, [(7S)-4-(1,2,3-Benzothiadiazol-6-ylamino)-5,6,7,8-tetrahydro[1]benzothieno[2,3-d]pyrimidin-7-yl](3,3-difluoropyrrolidin-1-yl)methanone], for which, under setting [1], the IC50 amounted to 11 nM.
Still for that read-out and setting: the result for `O=C([C@H]1CCc2c(sc3ncnc(Nc4ccc5nnsc5c4)c23)C1)N1C[C@@H]2C[C@H]1CO2` [Example 18, [(7S)-4-(1,2,3-Benzothiadiazol-6-ylamino)-5,6,7,8-tetrahydro[1]benzothieno[2,3-d]pyrimidin-7-yl][(1S,4S)-2-oxa-5-azabicyclo[2.2.1]hept-5-yl]methanone] reads 14 nM.
Same read-out and setting: the same measure for `CN1C[C@@H]2C[C@H]1CN2C(=O)[C@H]1CCc2c(sc3ncnc(Nc4ccc5nnsc5c4)c23)C1` [Example 19, [(7S)-4-(1,2,3-Benzothiadiazol-6-ylamino)-5,6,7,8-tetrahydro[1]benzothieno[2,3-d]pyrimidin-7-yl][(1S,4S)-5-methyl-2,5-diazabicyclo[2.2.1]hept-2-yl]methanone]: 20 nM.
Still for that read-out and setting: the result for `O=C([C@H]1CCc2c(sc3ncnc(Nc4ccc5nnsc5c4)c23)C1)N1CC2(COC2)C1` [Example 20, [(7S)-4-(1,2,3-Benzothiadiazol-6-ylamino)-5,6,7,8-tetrahydro[1]benzothieno[2,3-d]pyrimidin-7-yl](2-oxa-6-azaspiro[3.3]hept-6-yl)methanone] reads 16 nM; that for `CN(C)CCN(C)C1CCN(C(=O)[C@H]2CCc3c(sc4ncnc(Nc5ccc6nnsc6c5)c34)C2)CC1` [Example 21, [(7S)-4-(1,2,3-Benzothiadiazol-6-ylamino)-5,6,7,8-tetrahydro[1]benzothieno[2,3-d]pyrimidin-7-yl](4-{[2-(dimethylamino)ethyl](methyl)amino}piperidin-1-yl)methanone], 1.3 nM; that for `CN(CCNC(=O)OC(C)(C)C)C(=O)[C@H]1CCc2c(sc3ncnc(Nc4ccc5nnsc5c4)c23)C1` [Example 22, tert-Butyl {2-[{[(7S)-4-(1,2,3-benzothiadiazol-6-ylamino)-5,6,7,8-tetrahydro[1]benzothieno[2,3-d]pyrimidin-7-yl]carbonyl}(methyl)amino]ethyl}carbamate], 14 nM.
